# Assay results as given in PMC4552448 (Journal of medicinal chemistry, 2015).
# Legend:
# Type in all cases: cell-based
# HeLa cells = assay: NKG2D and DNAM-1 ligand surface expression, IF and flow cytometry; settings: data not shown
# [1] = test system: RD rhabdomyosarcoma cells; assay: Growth inhibition, MTT, RD; settings: Rhabdomyosarcoma cell, 48 h, read-out: IC50 ± SD RD
# [2] = test system: HepG2 hepatocellular carcinoma cells; assay: Growth inhibition, MTT, HepG2; settings: Homo sapiens, HepG2, 48 h, read-out: IC50 ± SD HepG2
# [3] = test system: OVCAR-8 ovarian carcinoma cells; assay: Growth inhibition of OVCAR-8 cells; settings: Homo sapiens, OVCAR-8, 96 h, read-out: IC50 ± SD OVCAR-8
SMILES,induction of the NKG2D and DNAM-1 ligands (HeLa cells),IC50 [1],IC50 [2],IC50 [3]
"COc1cc(C(=O)c2ccn(-c3cccc(N)c3)c2)cc(OC)c1OC [(1-(3-aminophenyl)-1H-pyrrol-3-yl)(3,4,5-trimethoxyphenyl)-methanone]",unable to induce,,,
"CC(=O)O[C@H]1C(=O)[C@@]2(C)[C@H]([C@H](OC(=O)c3ccccc3)[C@]3(O)C[C@H](OC(=O)[C@H](O)[C@@H](NC(=O)c4ccccc4)c4ccccc4)C(C)=C1C3(C)C)[C@]1(OC(C)=O)CO[C@@H]1C[C@@H]2O [PTX, Paclitaxel]",,> 10000 nM,,
"CC[C@]1(O)C[C@@H]2CN(CCc3c([nH]c4ccccc34)[C@@](C(=O)OC)(c3cc4c(cc3OC)N(C)[C@H]3[C@@](O)(C(=O)OC)[C@H](OC(C)=O)[C@]5(CC)C=CCN6CC[C@]43[C@@H]65)C2)C1 [VBL, vinblastine]",,53 ± 2.5 nM,81 ± 2.4 nM,15 ± 7 nM
